For assay [1], the target named is hPMCA4 overexpressed in HEK293T cells (Homo sapiens, UniProt P23634). The experiment in a line: Dynamics of cytoplasmic Ca2+ in HEK293T cells overexpressing hPMCA4. It is filed as cell-based. The conditions noted are these: 50 μM, 30 min; for AUC of [Ca2+]CYT after TG addition: 2 μM TG.
In the next assay the target is Na+/K+-ATPase. Conditions: read-out: Ki (Na+/K+-ATPase activity); cited from earlier work.

Chain of hPMCA4 overexpressed in HEK293T cells (P23634 1-1205 isoform P23634-6): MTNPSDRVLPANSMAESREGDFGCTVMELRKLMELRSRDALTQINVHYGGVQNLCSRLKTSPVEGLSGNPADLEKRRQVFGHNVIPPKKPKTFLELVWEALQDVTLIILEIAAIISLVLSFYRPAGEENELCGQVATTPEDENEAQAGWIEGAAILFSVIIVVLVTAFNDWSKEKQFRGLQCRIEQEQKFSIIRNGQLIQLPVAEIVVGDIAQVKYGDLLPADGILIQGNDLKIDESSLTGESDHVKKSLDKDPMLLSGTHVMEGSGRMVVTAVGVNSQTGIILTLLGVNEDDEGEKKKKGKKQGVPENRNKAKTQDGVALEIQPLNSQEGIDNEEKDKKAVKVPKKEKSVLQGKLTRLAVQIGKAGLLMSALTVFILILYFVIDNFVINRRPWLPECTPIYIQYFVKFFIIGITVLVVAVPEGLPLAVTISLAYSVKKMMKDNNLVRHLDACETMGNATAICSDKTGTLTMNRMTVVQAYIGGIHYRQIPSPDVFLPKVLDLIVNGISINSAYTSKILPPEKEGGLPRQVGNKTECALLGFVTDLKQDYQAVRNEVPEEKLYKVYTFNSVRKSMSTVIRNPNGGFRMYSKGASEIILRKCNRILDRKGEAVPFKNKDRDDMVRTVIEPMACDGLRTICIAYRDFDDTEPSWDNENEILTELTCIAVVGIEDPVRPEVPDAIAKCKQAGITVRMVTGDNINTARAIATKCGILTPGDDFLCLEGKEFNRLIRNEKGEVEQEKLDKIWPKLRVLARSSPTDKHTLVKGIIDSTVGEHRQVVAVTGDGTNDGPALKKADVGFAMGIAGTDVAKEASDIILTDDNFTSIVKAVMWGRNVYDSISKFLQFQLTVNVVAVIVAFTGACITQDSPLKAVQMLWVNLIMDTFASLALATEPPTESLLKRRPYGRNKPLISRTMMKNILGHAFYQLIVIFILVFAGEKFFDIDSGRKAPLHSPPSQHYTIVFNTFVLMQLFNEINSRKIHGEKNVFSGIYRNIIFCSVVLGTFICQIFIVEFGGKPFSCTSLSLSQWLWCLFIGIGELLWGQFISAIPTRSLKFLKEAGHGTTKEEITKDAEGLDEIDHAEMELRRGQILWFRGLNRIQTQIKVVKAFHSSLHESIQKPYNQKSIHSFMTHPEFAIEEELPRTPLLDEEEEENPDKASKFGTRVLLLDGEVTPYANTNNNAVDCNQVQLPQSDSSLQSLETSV

Turning to `O=C(O[C@@H]1Cc2c(O)cc(O)cc2O[C@@H]1c1cc(O)c(O)c(O)c1)c1cc(O)c(O)c(O)c1` [EGCG, (−)-cis-3,3′,4′,5,5′,7-Hexahydroxy-flavane-3-gallate], the “hPMCA4 activity in HEK293T cells (Eq. 6)” value in assay [1] is recorded as “significantly decreased”. Also, the results for the “AUC of [Ca2+]CYT after TG addition” value in assay [1] (HEK293T-hPMCA4 cells) and in assay [1] (HEK293T-mock cells) were “induced an increase in the AUC value” and “no significant effect”, respectively. Besides, at Na+/K+-ATPase, the Ki is 1000 nM.

Source of the values: article PMC7930289 (Heliyon, 2021).
